Results on 3 molecules are retold here after publication PMC4187505 (Journal of the American Heart Association: Cardiovascular …, 2014).

For data set [1], the target named is hlipocalin-2 (human lipocalin-2, neutrophil gelatinase-associated lipocalin) (Homo sapiens, UniProt P80188). As to the kind of experiment: isothermal titration calorimetry. The class given is binding. (ITC needs no label: the signal is the heat of the interaction.)
The data set “nonreducing SDS-PAGE” deals with the molecule itself. In words: nonreducing SDS-PAGE.

Chain of hlipocalin-2 (human lipocalin-2, neutrophil gelatinase-associated lipocalin) (P80188 21-198): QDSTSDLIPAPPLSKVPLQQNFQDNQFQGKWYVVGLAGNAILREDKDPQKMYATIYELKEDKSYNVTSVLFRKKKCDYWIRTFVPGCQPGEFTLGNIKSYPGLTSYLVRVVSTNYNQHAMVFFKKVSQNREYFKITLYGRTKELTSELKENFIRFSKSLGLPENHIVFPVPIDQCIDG

As to `CCCCC/C=C\C/C=C\CCCCCCCC(=O)O` [linoleic acid], the affinity in data set [1], expressed as Kd, was 0.487 µM.
Still for that read-out and setting: next, `CCCCCCCC/C=C\CCCCCCCC(=O)O` [oleic acid]: 1470 µM.

B1: human lipocalin‐2 mutant C87A (cysteine 87 replaced by alanine) (natural protein, UniProt P80188 21-198, looked up)
chain: QDSTSDLIPAPPLSKVPLQQNFQDNQFQGKWYVVGLAGNAILREDKDPQKMYATIYELKEDKSYNVTSVLFRKKKCDYWIRTFVPGAQPGEFTLGNIKSYPGLTSYLVRVVSTNYNQHAMVFFKKVSQNREYFKITLYGRTKELTSELKENFIRFSKSLGLPENHIVFPVPIDQCIDG
modifications: contains a significantly lesser amount of polyamines than wild type
For the molecule B1, in the data set “nonreducing SDS-PAGE”, the ratio of homodimer/monomer is above 10 homodimer/monomer.
